According to patent publication US20070185211A1, “Crystal forms of cinacalcet HCI and processes for their preparation” (priority 2005, published 2007):

Assay: Crystal form after drying/heating at 50° C. (solid state stability of the polymorph)
Type: physicochemical
Protocol: X-Ray powder diffraction data were obtained using a SCINTAG powder X-Ray diffractometer model X'TRA equipped with a solid state detector and a variable gonimeter. Copper radiation of 1.5418 Å was used. A round standard aluminum sample holder with round zero background, and cavity of 25(diameter)*0.5(dept) mm. Scanning parameters range of: 2-40 deg. 2θ and continuous scan rate of 3 deg./min.
0.62 gr of Cinacalcet HCl was dissolved in Chloroform (6 ml) at room temperature. […] The slurry was stirred at room temperature for 4 minutes. […]

In the case of `C[C@@H](NCCCc1cccc(C(F)(F)F)c1)c1cccc2ccccc12.Cl` [Cinacalcet HCl crystal form III, (R)-α-methyl-N-[3-[3-(trifluoromethyl)phenyl]propyl]-1-naphthalenemethane amine], the “crystalline structure after drying” value (dried at 50° C. for 24 hours) is reported as “maintained as form III” and the “crystal form obtained after heating” value (heated at 50° C. under vacuum for 22 hours) is reported as “form I was obtained”.
